Experimental data as given in patent publication US9962427B2, “Treatment of right ventricular dysfunction due to pressure overload” (OTTAWA HOSPITAL RESEARCH INSTITUTE, priority 2016, dated 2018).

Assays:
[1] = system: Vascular Endothelial Growth Factor—VEGF; assay: VEGF expression by immunofluorescence in primary cardiomyocytes; assay type: cell-based; conditions: 24 hours; hCT1 0.5 nM, PE 100 μM, PAC-1 25 μM
Protocol: FIGS. 8A and 8B. […] FIG. 8B Microarray analysis of primary cardiomyocytes stimulated with hCT1 (0.5 nM) for 24 hours.
Applicant explored the role of CT-1 as a pro-angiogenic factor in the adaptive hypertrophic response. Physiologic cardiac adaptive compensation is associated with an increase in capillary density, whereas pathologic response is characterized by a decline or no change at all. Importantly, the compensatory vascular growth/angiogenesis that occurs during physiologic adaptive compensation is permissive for the increased workload that accompanies physiologic adaptive compensation. Despite this adaptation, little information exists regarding the mechanisms that match the demand for angiogenesis to the beneficial form of myocardial growth. The rapid in vitro and in vivo adaptive compensation in response to CT-1 supports a hypothesis that the cardiomyocyte itself may act in a paracrine fashion, to signal and promote angiogenesis. To address this conjecture, Applicant examined whether CT-1 treated primary cardiomyocytes produced vascular endothelial growth factor (VEGF), an angiogenic factor known to be produced and secreted by cardiomyocytes. Primary cardiomyocytes were incubated with control serum-free media (Ctrl, SF media) or stimulated with hCT1 (0.5 nM), PE (100 μM), or PAC-1 (25 μM) for 24 hours. Immunofluorescence was used to detect α-actinin, Vascular Endothelial Growth Factor—VEGF, and nuclei. […] Based on these observations Applicant next conducted a comparative gene expression analysis of control (non-stimulated) versus CT-1 treated (0.5 nM, 24 hours) primary cardiomyocytes, using the Affymetrix Rat gene 2.0ST array.

rats = assay: In vivo growth reversal analysis (ECHO, HW:BW, CD31 capillary density) after 2 week delivery and follow-on; set-up: species or system rat; conditions: for ventricle wall thickness at 2 weeks: CT-1 6 μg/kg/hr or PE 10 mg/kg/day for 2 weeks
From the text: FIGS. 3A, 3B, and 3C. […] Arrows (in upper panels) point to myocardial wall (RVLW). Dotted lines (in lower panels) show inner ventricle chambers.
FIGS. 4A and 4B. Beneficial/physiologic cardiac adaptive compensation and reversion to baseline cardiac dimensions is observed upon 2 weeks of hCT1 administration in vivo followed by hCT1 withdrawal for 4 weeks. Identical follow-on procedure and analysis as conducted in FIG. 3 above. FIG. 4A Whole hearts and Hematoxylin & Eosin (H & E) stained sections and quantification of the heart weight to body weight (HW:BW) ratio 6 weeks post-treatment with hCT1 or PE.
CT-1 was tested in vivo to determine whether its administration would induce a myocardial adaptive remodeling characteristic of physiologic compensation (FIGS. 3A, 3B, and 3C). Osmotic minipumps containing PBS control (Ctrl) or hCT1 (6 μg/kg/hr) or Isoproterenol (ISO, 1 mg/kg/day) were implanted subcutaneously in rats. ISO is a beta-adrenergic receptor agonist and continuous infusion with ISO in rats is known to induce pathological cardiac hypertrophy and cardiomyocyte damage (in both the right and left ventricles) which progresses to heart failure (Morisco et al (2001) J Mol Cell Cardiol 33:561-573 and Grimm et al (1998) Cardiovascular Research 37:91-100). After 2 weeks of treatment, M-mode ECHO analysis was used to assess myocardial structure/function (FIG. 3A). In this model, an increased right ventricle lateral wall (RVLW) thickness indicates the presence of myocardiocytes growth, and an increased ratio of the right to left ventricle internal diameters (RVID/LVID) is an indicator of pathologic hypertrophy. An increased RVLW thickness but constant or reduced RVID:LVID ratio is an indicator of adaptive compensatory RV remodeling. Both hCT1 and ISO induced a significant increase in RVLW thickness (12% and 32% fold increase, respectively) compared to control rats (n=3; * and **, P<0.05). […] An in vivo growth reversal analysis was also conducted. Following a 2 week delivery of CT-1 protein (6 μg/kg/hr) or PE (10 mg/kg/day) as the pathologic control in this case, animals were then assessed for cardiac structure/function at a 6 week follow-on period. […] Collectively, these studies support the contention that CT-1 elicits a reversible physiologic cardiac adaptive compensation.

NFAT = NFAT luciferase reporter adenovirus (Nfat-AdV) in cardiomyocytes; assay type: cell-based
Protocol: FIGS. 6A, 6B, and 6C. Stimulation with hCT1 causes sustained activation of NF-κB and Stat3 with limited activation of Mef2, as well as limited Nfat activation; the latter two indices are distinct expression patterns from pathologic hypertrophic stimulation. FIG. 6A Primary neonatal cardiomyocytes were transfected with luciferase reporter plasmids (NF-κB or Mef2), as indicators of hypertrophic activity. Luciferase activity was measured after treatments for 24 hrs with: hCT1 (0.5 nM), PE (100 μM), or procaspase 3 activating compound 1, PAC-1 (25 μM) (left). Treatments at early timepoints (30 min, 1 hr, and 3 hr) were also conducted for hCT1 (right). FIG. 6B Primary neonatal cardiomyocytes were transfected with a luciferase reporter plasmid for Stat3. Luciferase activity was measured after treatments for 24 hrs with: hCT1 (0.5 nM), PE (100 μM), or procaspase 3 activating compound 1, PAC-1 (25 μM) (left) and at earlier time points (right). FIG. 6C Primary neonatal cardiomyocytes were infected with a luciferase-based Nfat reporter Adenovirus (Nfat-AdV). Luciferase activity was measured after treatments for 24 hrs with: hCT1 (0.5 nM), PE (100 μM), or procaspase 3 activating compound 1, PAC-1 (25 μM) (left) and at earlier time points (right)
Applicants tested this supposition by infecting cardiomyocytes with an NFAT luciferase reporter linked to an Adenovirus (AdV) backbone (FIG. 6C). Cardiomyocytes were infected at a […] (MOI) of 20 with Nfat-AdV for 24 hours prior to stimulation with hCT1 (0.5 nM), PE (100 μM), or procaspase 3 activating compound 1, PAC-1 (25 μM). As an initial positive control, co-infection of NFAT-AdV with activated Calcineurin-AdV (a phosphatase and potent activator of NFAT signalling) caused a significant increase in NFAT activity (n=4; *, P<0.05). […] Although the exact mechanism of inhibition is unknown, Applicant has shown CT-1 engaging a PI3K signalling pathway and it would be reasonable to postulate that phosphorylation of NFAT by CT-1/PI3K signalling would limit NFAT activity.

[2] = 2 week delivery, 6 week follow-on

| Molecule | VEGF expression (immunofluorescence) [1] | RVID/LVID ratio at 6 weeks post-treatment compared to control rats (rats; [2]) | heart weight to body weight ratio at 6 weeks post-treatment (rats; [2]) | wall thickness / cardiac dimensions at 6 weeks post-treatment (rats; [2]) | cardiac capillary density (CD31 immunostained right ventricle sections) (rats; 6 weeks post-treatment, compared to CT-1 treated and control animals) | ventricle wall thickness at 2 weeks (rats) | NFAT activity compared to baseline levels (NFAT; as early as 3 hours, up to 24 hours, PE 100 μM, PAC-1 25 μM) | NFAT activity compared to baseline levels, CT-1 alone (NFAT; 30 minutes, 1 hour, and 3 hours) | NFAT activity after CT-1 pre-treatment compared to PE or PAC-1 alone (NFAT; 3 hours and 24 hours) |
| --- | --- | --- | --- | --- | --- | --- | --- | --- | --- |
| CNC[C@H](O)c1cccc(O)c1 [PE, Phenylephrine] | less VEGF expression | maintained their increased RVID/LVID ratio | increased heart weight to body weight ratio | retaining the substantial increase in wall thickness | significant decrease in cardiac capillary density | increase in (both) ventricle wall thickness | significant increase of NFAT activity | – | – |
| hCT1: Recombinant human CT1 protein; 201 amino acid sequence, GenBank Accession Nos AAD12173 and AAA85229 (human) (protein, UniProt Q16619 1-201, looked up) Cardiotrophin-1: MSRREGSLEDPQTDSSVSLLPHLEAKIRQTHSLAHLLTKYAEQLLQEYVQLQGDPFGLPSFSPPRLPVAGLSAPAPSHAGLPVHERLRLDAAALAALPPLLDAVCRRQAELNPRAPRLLRRLEDAARQARALGAAVEALLAALGAANRGPRAEPPAATASAASATGVFPAKVLGLRVCGLYREWLSRTEGDLGQLLPGGSA | rapid increase in the expression of VEGF | – | – | complete return to baseline cardiac dimensions for wall thickness | – | increase in (both) ventricle wall thickness | – | slight, yet significant, decrease in NFAT activity | significantly decreased NFAT activity |
